The source of these data is patent US12024506B2, “Compounds” (Oxford University Innovation Limited, priority 2018, dated 2024).

Test [1] deals with T1, GST-human KRas166 (G12V) GPPNHP (Homo sapiens, UniProt P01116, G12V).
T1 construct: made in house; host or cells: E. coli C41(DE3)
As to the kind of experiment: KRas small-molecule screening by SPR (Biacore T200). To be noted: compound 100 uM, 5% DMSO buffer; immobilised GST-KRas166 (G12V) GPPNHP. In kind it is binding. A digest of the protocol:
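GST-KRas166 G12V loaded with GPPNHP, captured on anti-GST CM5 chip at 10,000–15,000 RU, GST reference channel. Compounds run at 100 uM in buffer with 100 mM NaCl, 5 mM MgCl2, 5% DMSO, with DMSO solvent correction; Rmax for 1:1 binding taken as 63 RU.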
(In general: Surface plasmon resonance follows binding to a sensor surface in real time, without labels.)

Test [2] deals with H358 cells (ATCC CRL-5807). Nature of the test: Cell viability assay 1 (CellTiter-Glo), H358 cells. It counts as cell-based. The note with it: Homo sapiens, NCI-H358, 48 h, first value of the cell, read-out: Cell Viability H358 (concentration that decreases cell viability by 50%). In outline: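 H358 cells were grown in RPMI-1640 with 10% FCS and 2 mM L-glutamine, plated at 5000 cells/well and allowed to adhere overnight. Compound was added in 0.5% DMSO final for 48 h at 37° C. Viability was read by CellTiter-Glo luminescence, with the 50% viability-reducing concentration derived from dose-response curves.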

Test [3] has as its system DLD1 cells (ATCC CCL-221). As to the kind of experiment: Cell viability assay 1 (CellTiter-Glo), DLD1 cells. The note with it: Homo sapiens, DLD-1 cells, 48 h, second value of the cell, read-out: Cell Viability DLD-1 (concentration that decreases cell viability by 50%). It counts as cell-based. A digest of the protocol: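 DLD1 cells grown in RPMI-1640 with 10% FCS, 2 mM L-glutamine, 37 °C, 5% CO2, plated overnight then exposed to compound (0.5% DMSO) for 48 h. Viability by CellTiter-Glo luminescence; value is concentration reducing viability by 50% from dose-response curves.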

For `COc1nc(-c2cccc3c2OCCO3)ccc1Nc1ccc(CN(C)C)cc1` [compound 56, [6-(2,3-Dihydro-benzo[1,4]dioxin-5-yl)-2-methoxy-pyridin-3-yl]-(4-dimethylaminomethyl-phenyl)-amine], in test [1], the “SPR Response Units” value is reported as 116 Response Units. Moreover, the results for the IC50 in test [2] and in test [3] were 12 µM and 8 µM, respectively.

`COc1cc(-c2cccc3c2OCCO3)ccc1Nc1cccc(CN(C)C)c1.O=CO` [compound 72, [4-(2,3-Dihydro-benzo[1,4]dioxin-5-yl)-2-methoxy-phenyl]-(3-dimethylaminomethyl-phenyl)-amine formate salt]: the “SPR Response Units” value in test [1] turned out to be 56 Response Units. Moreover, the IC50 in test [2] was found to be 15.3 µM; in test [3], 15.4 µM.
